Ki data for 5 molecules are collected here from BindingDB's records for doi:10.1016/0014-2999(96)00428-1 (Glaxo Research & Development, 1996).

pKi: −log10 of the molar value. “And” between values parts separate entries of the source, which are not always exact repeats. Equal entries are not always repeated.

A word on the pKi: it is the Ki on a negative log10 scale, so that one unit is a factor of ten.

Hrh3 protein, sequence (Q5PPG3 whole entry): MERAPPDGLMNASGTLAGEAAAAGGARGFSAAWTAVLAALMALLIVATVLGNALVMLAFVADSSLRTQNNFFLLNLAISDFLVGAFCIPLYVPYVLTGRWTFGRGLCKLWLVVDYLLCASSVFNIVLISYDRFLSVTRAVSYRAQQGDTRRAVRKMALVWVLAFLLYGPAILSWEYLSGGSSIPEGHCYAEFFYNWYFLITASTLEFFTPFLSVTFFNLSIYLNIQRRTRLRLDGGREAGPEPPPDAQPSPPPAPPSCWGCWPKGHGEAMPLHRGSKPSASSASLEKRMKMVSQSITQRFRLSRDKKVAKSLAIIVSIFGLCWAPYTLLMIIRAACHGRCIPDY

The test concerns the target Hrh3 protein (Rattus norvegicus, UniProt Q5PPG3).
Molecule `CNC(=S)NCCCCc1cnc[nH]1` [1-[4-(1H-imidazol-5-yl)butyl]-3-methylthiourea] showed a negative-log Ki (pKi) of 7.20. Take `CN/C([CH-][N+](=O)[O-])=[NH+]\CCSCc1ccc(CN(C)C)o1`: the negative logarithm of the Ki (pKi) was 5.30 and < 5.00. As for `COc1ccc(CN(CCN(C)C)c2ccccn2)cc1`, the pKi is 5.10 and < 5.00. The result for `NC(=NC1CCCCC1)N1CCC(c2cnc[nH]2)CC1` [GR-168320] reads 9.82 and 9.72; that for `Cc1[nH]cnc1CSCCNC(=N)NCCCc1c[nH]cn1` [2-[3-(1H-imidazol-5-yl)propyl]-1-(2-{[(5-methyl-1H-imidazol-4-yl)methyl]sulfanyl}ethyl)guanidine], 7.70 and 7.90.
